Experimental data published in patent US7091351B2, “Vanadium compounds for treating cancer” (Parker Hughes Institute, priority 1998, dated 2006).
Like-named read-outs stand apart in the source and are kept apart here.

Assays:
Format in all cases: cell-based, human
[1] = system: U373 glioblastoma cells; test: MTT cytotoxicity assay of vanadocenes, U373 cells; details: 24 h
Protocol: Human testicular cancer cell lines, Tera-2 (embryonal carcinoma) and Ntera-2 (pluripotent embryonal carcinoma) were obtained from the American Type Culture Collection (ATCC) (Rockeville, Md.) and propagated in T-25, T-75, or T-150 cm^2 tissue culture flasks (Corning Corp., Corning, N.Y.) in McCoy's 5A medium and Dulbecco's modified Eagle's medium respectively. Both media were supplemented with 10% fetal calf serum (FCS), 4 mM glutamine, 100 U/ml penicillin G, and […] streptomycin sulfate. All tissue culture reagents were obtained from Life Technologies Inc. (GIBCO-BRL), Gaithersburg, Md. Cell lines were cultivated for a minimum of two passages after thawing prior to experimentation. Other cell lines that were used in this study were the human B-lineage acute lymphoblastic leukemia (ALL) cell line NALM-6. Uckun, F. M., Evans, W. E., Forsyth, C. J., Waddick, K. G., Tuel-Ahlgren, L., Chelstrom, L. M., Burkhardt, A., Bolen, J., Myers, D. E. Biotherapy of B-cell precursor leukemia by targeting genistein to CD19-associated tyrosine kinase. Science (Washington DC) 267:886–91, 1995; T-lineage ALL cell line MOLT-3, Waurzyniak, B., Shneider, E. A., Tumer, N., Yanishevski, Y., Gunther, R., Chelstrom, L., Wendorf, H., Myers, D. E., Irvin, J. D., Messinger, Y., Ek, O., Zeren, T., Chandan-Langlie, M., Evans, W. E., Uckun, F. M. In vivo toxicity, pharmacokinetics, and antileukemic activity of TXU (anti-CD7)-pokeweed antiviral protein immunotoxin. Clinical Cancer Research 3:881–890, 1997; AML cell line HL-60, Perentesis, J. P., Waddick, K. G., Bendel, A. E., Shao, Y., Warman, B. E., Chandan-Langlie, M., and Uckun, F. M. Induction of apoptosis in multi-drug resistant andradiation-resistant acute myeloid leukemia cells by a recombinant fusion toxin directed against the granulocyte macrophage colony stimulating factor receptor. Clin. Cancer Res. 3:347–355, 1997; breast cancer cell lines MDA-MB-231 and BT-20, Uckun, F. M., Narla, R. K., Jun, X., Zeren, T., Venkatachalam, T., Waddick, K. G., Rostostev, A., Myers, D. E. Cytotoxic activity of EGF-genstein against breast cancer cells. Clin. Cancer Res. 4:901–912, 1998; glioblastoma cell lines U87 and U373, Narla, R. K., Liu, X., Myers, D. E., and Uckun, F. M. 4-(3′-Bromo-4′hydroxylphenyl)-amino-6,7-dimethoxyquinazoline (WHI-P154): A novel quinazoline derivative with potent cytotoxic activity against human glioblastoma cells. Clin. Cancer Res. 4:1405–1414, 1998.
MTT (3-[4,5-dimethyl thiazol-2-yl]-2,5-diphenyltetrazolium bromide)-based colorimetric assays were used for evaluation of the cytotoxicity of vanadocene compounds. Mosmann, T. Rapid colorimetric assay for cellular growth and survival: application to proliferation and cytotoxicity assays. J. Immunol. Methods, 65: 55–63, 1983. Briefly, cells were harvested with 0.125% (w/v) trypsin-0.02% EDTA (GIBCO-BRL) from exponential-phase maintenance cultures and centrifuged (300 g×5 min). After suspension and counting, cells were dispensed within triplicate 96-well tissue culture plates in 100 μl volumes. After 24 h incubation, the culture medium was discarded and replaced with 100 μl of fresh medium containing serial two-fold dilutions of drugs in medium to yield 1.9 μM to 250 μM. All compounds were reconstituted in DMSO to a concentration of 100 mM, and the stock solution was made fresh for each experiment. Control wells consisted of medium containing 0.25% of DMSO alone were used for solvent control. Culture plates were then incubated for 24 h before adding 10 μl of MTT solution (5 mg/ml in PBS) to each well. Wells containing only medium and MTT were used as controls for each plate. The tetrazolium/formazan reaction was allowed to proceed for 4 h at 37° C., and then 100 μl of the solubilization buffer (10% sodium dodecyl sulfate in 0.1% HCl) were added to all wells and mixed thoroughly to dissolve the dark blue formazan crystals. […]

[2] = system: NALM-6 leukemia cells; test: Mitochondrial transmembrane potential, JC-1 staining, flow cytometry
Protocol: To measure the changes in mitochondria, NALM-6 cells were incubated with compound 29 at concentrations ranging from 0.1 μM to 1 μM for 24 hr, 48 hr, 72 hr or 96 hr, stained with specific fluorescent dyes and analyzed with flow cytometer. Mitochondrial membrane potential (ΔΨm) was measured using two dyes including a lipophollic cation 5,5′,6,6′-tetrachloro-1,1′,3,3′-tetraethlybenzimidazolylcarbocyanine iodide (JC-1; Molecular probes, Eugene, Oreg.) and a cyanine dye, 1,1′,3,3,3′,3′-hexamethylindodicarbocyanine iodide [DiIC1(5); Molecular probes] as earlier described (22). JC-1 can enter the cells, and selectively mitochondria, and has been used to assess ΔΨm in a variety of studies (23,24). JC-1 is a monomer at 527 nm after being excited at 490 nm; with polarization of ΔΨm, J-aggregates are formed that shift emission to 590 nm (23, 24). This can be detected on a flow cytometer by assessing the green signal (at 527 nm) and green-orange signal (at 590 nm) simultaneously, creating an index of the number of cells polarized and depolarized mitochondria. The treated and control cells were washed and plated in a 6-well plate at 1×10^6 cells in fresh medium. JC-1 was added at a concentration of 10 μg/ml, and cells were incubated for 10 min in the dark at room temp. Cells were then washed twice with ice-cold PBS and immediately analyzed using Becton Dickinson (San Jose, Calif.) Calibur flow cytometer. At least 2×10^3 cells were analyzed to determine the percentage of cells with polarized and depolarized mitochondria. DiIC1(5), a cyanine dye is amphioatheic and cationic that concentrate in energized mitochondria and has been used in a variety of studies to measure the mitochondrial membrane potential (25–27). NALM-6 cells were stained with DiIC1(5) at 40 nM concentration for 30 min in the dark as described for JC-1. The cells were analyzed using Vantage Becton Dickinson cell sorter equipped with HeNe laser with excitation at 635 nm and the fluorescence was collected at 666 nm.

[3] = system: NALM-6 cells; test: In situ detection of apoptosis, confocal microscopy, NALM-6; details: 48 hours after treatment
Protocol: Exponentially growing cells were seeded in 6-well tissue culture plates and incubated with fresh medium containing compounds. […] The cells were fixed in 2% paraformaldehyde, washed with PBS and pelleted by centrifuging the tubes at 1000 rpm for 5 min. Cells pellets were resuspended in 50 μl of PBS, transferred to superforst plus slides and allowed to attach for 15 min. The cells were permeabilized with 0.1% triton X-100 in 0.1% citrate buffer and incubated for 1 hr at 37° C. with the reaction mixture containing terminal deoxynucleotidyl transferase (TdT) and fluorescein isothiocyanate (FITC)-conjugated dUTP. Cells were washed with PBS to remove unbound reagents and the coverslips were mounted onto slides with Vectashield containing propidium iodide (Vector Labs, Burlingame, Calif.) and slides were viewed with a confocal laser scanning microscope. […] In control reactions, the TdT enzyme was omitted from the reaction mixture.

Molecule | IC50 [1] | fraction of JC-1 red/orange fluorescence-positive cells, 48 hr ([2]; 500 nM, 48 hr (vehicle 98.6%)) | fraction of JC-1 red/orange fluorescence-positive cells, 72 hr ([2]; 500 nM, 72 hr (vehicle 98.6%)) | EC50 ([2]; 24 hr treatment, read-out: average EC50 for depolarization of mitochondria (JC-1 red/orange fluorescence), 24 hr) | EC50 ([2]; 48 hr treatment, read-out: average EC50 for depolarization of mitochondria (JC-1 red/orange fluorescence), 48 hr) | apoptotic nuclei (FITC-dUTP / propidium iodide), NALM-6 [3]
[Cl-].[Cl-].[V+4].c1cc[cH-]c1.c1cc[cH-]c1 [VDC, VCp2Cl2] | 42 µM |  |  |  |  | 
bis(4,7-dimethyl-1,10-phenanthroline)sulfatooxovanadium(IV) [Compound 29] |  | 56.1% | 8.4% | 4.2 µM | 0.5 µM | many apoptotic yellow nuclei
